Where a name gives a salt, the structure may show the parent alone.
Test: Single oral dose pharmacokinetics study in rats (10 mg/kg PO; plasma levels of prodrug and of metabolite DMT or 5-MeO-DMT by LC-MS/MS)
Conditions: for Mean Plasma Concentrations of metabolite DMT: prodrug 10 mg/Kg oral, male SD rats; for Mean Plasma Concentration (ng/mL) of metabolite DMT: analyte DMT after oral dosing of prodrug 10 mg/Kg
[1] = male, Sprague-Dawley, rat, plasma, po, 10 mg/kg, AUC0-last (h*ng/mL), oral 10 mg/Kg, analyte = dosed prodrug, mean
[2] = male, Sprague-Dawley, rat, plasma, po, 10 mg/kg, Cmax (ng/mL), oral 10 mg/Kg, analyte = dosed prodrug, mean
[3] = oral 10 mg/Kg, analyte = dosed prodrug, median
[4] = oral 10 mg/Kg, analyte = dosed prodrug, mean

SMILES: COc1ccc2c(c1)c(CCN(C)C)cn2C(=O)CCCC(=O)O [5-MeO-DMT Non-Lipid Prodrug 6, 5-(3-(2-(dimethylamino)ethyl)-5-methoxy-1H-indol-1-yl)-5-oxopentanoic acid]
- AUC(0-t) [1]: 362 ng·h/mL
- Cmax [2]: 106 ng/mL
- tlast [3]: 7.00 h

SMILES: COc1ccc2c(c1)c(CCN(C)C)cn2C(=O)CCC(=O)O [5-MeO-DMT Non-Lipid Prodrug 5, 4-(3-(2-(dimethylamino)ethyl)-5-methoxy-1H-indol-1-yl)-4-oxobutanoic acid]
- AUC(0-t) [1]: 85.7 ng·h/mL
- Cmax [2]: 23 ng/mL
- tlast [3]: 7.00 h

SMILES: CN(C)CCc1cn(C(=O)CC(C)(C)C(=O)O)c2ccccc12 [DMT-3,3-dimethylsuccinate hydrochloride, 4-(3-(2-(dimethylamino)ethyl)-1H-indol-1-yl)-2,2-dimethyl-4-oxobutanoic acid HCl salt]
- Mean Plasma Concentrations of metabolite DMT (time 0.50 h): BLQ (BLQ: Below Lower Limit of Quantification (0.5 ng/mL))
- Mean Plasma Concentrations of metabolite DMT (time 1.00 h): BLQ (BLQ: Below Lower Limit of Quantification (0.5 ng/mL))
- Mean Plasma Concentrations of metabolite DMT (time 2.00 h): BLQ (BLQ: Below Lower Limit of Quantification (0.5 ng/mL))
- Mean Plasma Concentrations of metabolite DMT (time 4.00 h): BLQ (BLQ: Below Lower Limit of Quantification (0.5 ng/mL))
- Mean Plasma Concentrations of metabolite DMT (time 7.00 h): BLQ (BLQ: Below Lower Limit of Quantification (0.5 ng/mL))
- Mean Plasma Concentrations of metabolite DMT (time 24.0 h): BLQ (BLQ: Below Lower Limit of Quantification (0.5 ng/mL))

SMILES: COc1ccc2c(c1)c(CCN(C)C)cn2C(C)=O [5-MeO-DMT AP-1, 1-[3-[2-(dimethylamino)ethyl]-5-methoxy-indol-1-yl]ethanone]
- AUC0-last [4]: 180 ng·h/mL
- Cmax [4]: 69 ng/mL
- T½ [4]: 1.24 h
- Tmax [3]: 30 min
- tlast [3]: 7.00 h

SMILES: CC(C)COC(=O)n1cc(CCN(C)C)c2ccccc21 [DMT CP-5, isobutyl 3-[2-(dimethylamino)ethyl]indole-1-carboxylate]
- AUC(0-t) [1]: 8.63 ng·h/mL
- Cmax [2]: 2.92 ng/mL
- tlast [3]: 4.00 h

SMILES: CC(=O)n1cc(CCN(C)C)c2ccccc21 [DMT AP-1, 1-[3-[2-(dimethylamino)ethyl]indol-1-yl]ethenone]
- AUC(0-t) [1]: 2.16 ng·h/mL
- Cmax [2]: 3.53 ng/mL
- tlast [3]: 1.00 h

SMILES: CC(C)OC(=O)n1cc(CCN(C)C)c2ccccc21 [DMT CP-2, isopropyl 3-[2-(dimethylamino)ethyl]indole-1-carboxylate]
- AUC(0-t) (male, Sprague-Dawley, rat, plasma, po, 10 mg/kg, AUC0-24 (h*ng/mL), oral 10 mg/Kg, analyte = dosed prodrug, mean): 60.9 ng·h/mL
- AUC(0-t) [1]: 39.4 ng·h/mL
- Cmax [2]: 17.4 ng/mL
- tlast [3]: 4.00 h

SMILES: CCCOC(=O)n1cc(CCN(C)C)c2cc(OC)ccc21 [5-MeO-DMT CP-4, propyl 3-[2-(dimethylamino)ethyl]-5-methoxy-indole-1-carboxylate]
- AUC(0-t) [1]: 6.45 ng·h/mL
- Cmax [2]: 4.85 ng/mL
- tlast [3]: 3.00 h

SMILES: CCCOC(=O)n1cc(CCN(C)C)c2ccccc21 [DMT CP-4, propyl 3-[2-(dimethylamino)ethyl]indole-1-carboxylate]
- AUC(0-t) [1]: 28.2 ng·h/mL
- Cmax [2]: 14.3 ng/mL
- tlast [3]: 4.50 h

SMILES: CN(C)CCc1cn(C(=O)OC(C)(C)C)c2ccccc12 [DMT CP-3, tert-butyl 3-[2-(dimethylamino)ethyl]indole-1-carboxylate]
- AUC(0-t) [1]: 13.8 ng·h/mL
- Cmax [2]: 11.1 ng/mL
- tlast [3]: 4.00 h

SMILES: CN(C)CCc1cn(C(=O)N(C)C)c2ccccc12 [DMT N,N-dimethyl urea formate, 3-[2-(dimethylamino)ethyl]-N,N-dimethyl-indole-1-carboxamide]
- Mean Plasma Concentrations of metabolite DMT (time 0.50 h): BLQ (BLQ: Below Lower Limit of Quantification (0.5 ng/mL))
- Mean Plasma Concentrations of metabolite DMT (time 1.00 h): BLQ (BLQ: Below Lower Limit of Quantification (0.5 ng/mL))
- Mean Plasma Concentrations of metabolite DMT (time 2.00 h): BLQ (BLQ: Below Lower Limit of Quantification (0.5 ng/mL))
- Mean Plasma Concentrations of metabolite DMT (time 4.00 h): BLQ (BLQ: Below Lower Limit of Quantification (0.5 ng/mL))
- Mean Plasma Concentrations of metabolite DMT (time 7.00 h): BLQ (BLQ: Below Lower Limit of Quantification (0.5 ng/mL))
- Mean Plasma Concentrations of metabolite DMT (time 24.0 h): BLQ (BLQ: Below Lower Limit of Quantification (0.5 ng/mL))

SMILES: COc1ccc2c(c1)c(CCN(C)C)cn2C(=O)OC(C)(C)C [5-MeO-DMT CP-3, tert-butyl 3-[2-(dimethylamino)ethyl]-5-methoxy-indole-1-carboxylate]
- AUC(0-t) [1]: 17.3 ng·h/mL
- Cmax [2]: 7.51 ng/mL
- tlast [3]: 4.00 h

SMILES: COc1ccc2c(c1)c(CCN(C)C)cn2C(=O)OC(C)C [5-MeO-DMT CP-2, isopropyl 3-[2-(dimethylamino)ethyl]-5-methoxy-indole-1-carboxylate]
- AUC(0-t) [1]: 6.8 ng·h/mL
- Cmax [2]: 5.7 ng/mL
- tlast [3]: 2.50 h

SMILES: CN(C)CCc1cn(C(=O)c2ccccc2)c2ccccc12 [DMT Benzamide]
- AUC(0-t) [1]: 66.5 ng·h/mL
- Cmax [2]: 17.7 ng/mL
- tlast [3]: 7.00 h

SMILES: CN(C)CCc1cn(C(=O)N2CCC(N3CCCCC3)CC2)c2ccccc12 [DMT 4-Piperidinopiperidine urea formate, [1,4′-Bipiperidin]-1′-yl(3-(2-(dimethylamino)ethyl)-1H-indol-1-yl)methanone]
- Mean Plasma Concentration (ng/mL) of metabolite DMT (0.50 h): BLQ (BLQ: Below Lower Limit of Quantification (0.5 ng/mL))
- Mean Plasma Concentration (ng/mL) of metabolite DMT (1.00 h): BLQ (BLQ: Below Lower Limit of Quantification (0.5 ng/mL))
- Mean Plasma Concentration (ng/mL) of metabolite DMT (2.00 h): BLQ (BLQ: Below Lower Limit of Quantification (0.5 ng/mL))
- Mean Plasma Concentration (ng/mL) of metabolite DMT (4.00 h): BLQ (BLQ: Below Lower Limit of Quantification (0.5 ng/mL))
- Mean Plasma Concentration (ng/mL) of metabolite DMT (7.00 h): BLQ (BLQ: Below Lower Limit of Quantification (0.5 ng/mL))
- Mean Plasma Concentration (ng/mL) of metabolite DMT (24.0 h): BLQ (BLQ: Below Lower Limit of Quantification (0.5 ng/mL))
